Results on three molecules are retold here after patent publication US20210228548A1, “PHARMACEUTICAL COMPOSITION FOR PREVENTING, ALLEVIATING OR TREATING OSTEOARTHRITIS, CONTAINING RHODANINE DERIVATIVE AS ACTIVE INGREDIENT” (Avixgen Inc., priority 2018, published 2021).

“Also recorded” adds a separate entry of the source.

Common to all, as to assay type: in vivo, C57/BL6 mice
Assay [1] relates to ZIP8-overexpressing mice. Put plainly: Cartilage destruction in mice with osteoarthritis induced by ZIP8 overexpression (safranin-O staining, modified Mankin score). To be noted: Ad-ZIP8 mice, three injections; for modified Mankin score (degree of cartilage destruction): intra-articular 0.0075, 0.015, 0.03 mg/kg once a week, vehicle group 2 or higher, also decreased concentration-dependently, FIGS. 2A, 4A, 6A; for loss of the cartilage matrix (safranin-O staining of whole joint and cartilage): intra-articular co-injection 0.0075, 0.015, 0.03 mg/kg once a week, versus vehicle group, FIGS. 1, 3, 5. On the procedure: (§1) Osteoarthritis-induced mice were prepared by overexpressing the zinc importer ZIP8 in the cartilage and joint tissues of mice.
(§2) Specifically, the cartilage and joint tissues of about 12-week-old male C57/BL6 mice were injected intra-articularly with a normal control adenovirus (Ad-C) or a ZIP8-expressing adenovirus (Ad-S1c39a8). A vehicle group was treated only with a vehicle without a vector. Each of the adenoviruses was injected at a concentration of 1×10^9 PFU a total of three times (once a week).
(§3) Meanwhile, in order to evaluate the effect of each of the therapeutic agents AVIX-7, MA3001 and MA6004 on the amelioration of osteoarthritis induced by ZIP8 overexpression, AVIX-7, MA3001 or MA6004 was co-injected into the joint when each adenovirus was injected.
(§4) Each of the therapeutic agents was used at doses of 0.0075 mg/kg, 0.015 mg/kg and 0.03 mg/kg mouse body weight. Each therapeutic agent was administered by injection once a week, and the amount of each therapeutic agent administered at each time point was 10 μl. One week after the day of the last injection of a total of three injections, the mice were sacrificed and the degree of cartilage destruction and the degree of occurrence of synovitis were analyzed.
In order to evaluate the therapeutic effect of AVIX-7, MA3001 or MA6004 on osteoarthritis in ZIP8-overexpressing mice, whole joint and cartilage tissues were stained with safranin-O and the degree of cartilage destruction was checked.
In addition, the degree of safranin-O staining (reflecting the degree of cartilage destruction) according to Table 2 below was observed and degraded according to the modified Mankin score (Mankin, Henry J., and Louis Lippiello. JBJS 52.3 (1970): 424-434.), and the grades were quantified graphically. The Mankin score is an index indicating the degree of arthritis and may be determined by the degree of safranin-O staining in mice, and the lower the Mankin score, the closer to normal.

Assay [2] concerns ZIP8-overexpressing mice. The experiment in a line: Synovitis in ZIP8-overexpressing animal model (hematoxylin-eosin/safranin-O staining, synovitis score). Particulars: Ad-ZIP8 mice, intra-articular 0.0075, 0.015, 0.03 mg/kg once a week, three injections; for score of synovitis: untreated ZIP8 mice 2 or higher, FIGS. 2B, 4B, 6B; for inflammatory response (penetration of inflammatory cells into the synovium): versus vehicle group, FIGS. 1, 3, 5. On the procedure:
as §1, §2, §3, §4
In order to evaluate the osteoarthritis amelioration effect of each of the therapeutic agents developed in the present disclosure, the ZIP8-overexpressing animal model was treated with AVIX-7, MA3001 or MA6004, and the cartilage and joint tissues of the animal model were stained with hematoxylin-eosin/safranin-O, and the presence or absence of synovitis was checked. The ZIP8-overexpressing animal model was prepared by the method described in Example 1.
In addition, the degree of synovitis was scored according to “Synovitis score: discrimination between chronic low-grade and high-grade synovitis. Histopathology 49, 358-364” described in Table 3 below, and was quantified graphically.

Assay [3] deals with mice with osteoarthritis induced by DMM. Put plainly: Osteoarthritis induced by destabilization of the medial meniscus (DMM): staining, OARSI grade, subchondral bone plate thickness. Particulars: intra-articular 0.0075, 0.015, 0.03 mg/kg once a week, three injections; for thickness of the subchondral bone plate (SBP): versus vehicle group (significantly increased), FIGS. 8B, 10B, 12B; for inflammation response in whole joint and cartilage tissues (images and OARSI grade): versus vehicle group, FIGS. 7B, 9B, 11B, 8A, 10A, 12A. On the procedure:
Mice with osteoarthritis induced by destabilization of the medial meniscus (DMM) were prepared. As a control group, a group (sham) whose meniscus was not damaged during surgery was used.
Specifically, osteoarthritis was induced by damaging the menisci of joints of about 12-week-old male C57/BL6 mice, and each therapeutic agent (AVIX-7, MA3001 or MA6004) was injected intra-articularly.
Each of the therapeutic agents was used at doses of 0.0075 mg/kg, 0.015 mg/kg and 0.03 mg/kg mouse body weight. Each therapeutic agent was administered by injection once a week, and the amount of each therapeutic agent administered at each time point was 10 μl. One week after the day of the last injection of a total of three injections, the mice were sacrificed and the effect of each therapeutic agent on the amelioration of osteoarthritis was evaluated.
In order to evaluate the effect of the compounds of the present disclosure on the amelioration of osteoarthritis, mice were subjected to destabilization of the medial meniscus (DMM) to induce osteoarthritis and were treated with AVIX-7, MA3001 or MA6004. In addition, the cartilage and joint tissues were stained with hematoxylin-eosin/safranin-O, and the effect of AVIX-7, MA3001 or MA6004 on the amelioration of osteoarthritis was evaluated pathologically. […] The OARSI grading method is described in Table 4 below.

In the case of `CC(C)OC(=O)c1ccc(-c2ccc(/C=C3\SC(=S)N(CCCC(=O)O)C3=O)o2)cc1` [MA3001, 4-(5-((5-(4-(isopropoxycarbonyl)phenyl)furan-2-yl)methylene)-4-oxo-2-thioxothiazolidin-3-yl)butanoic acid], in assay [1], the “modified Mankin score (degree of cartilage destruction)” value (shortened to “modified Mankin score”) is given as “lower than that of the vehicle group”; the “loss of the cartilage matrix (safranin-O staining of whole joint and cartilage)” value (shortened to “loss of the cartilage matrix”) was “rescuing the loss of cartilage matrix; also recorded: concentration-dependently rescued”. Moreover, in assay [2], the score of synovitis entry is “significantly decreased” and the “inflammatory response (penetration of inflammatory cells into the synovium)” value (“inflammatory response” below) was “alleviating synovitis; also recorded: alleviated”. In addition, in assay [3], the “thickness of the subchondral bone plate (SBP)” value (“thickness” for short) was “decreased”; the “inflammation response in whole joint and cartilage tissues (images and OARSI grade)” value (from here on “inflammation response”) is “alleviated”.

Take `O=C(O)CCN1C(=O)SC(Cc2ccc(-c3ccc(Cl)cc3)o2)C1=O` (stereo not drawn) [MA6004, 3-(5-((5-(4-chlorophenyl)furan-2-yl)methyl)-2,4-dioxothiazolidin-3-yl)propionic acid]: in assay [1], the “modified Mankin score” value is reported as “lower than that of the vehicle group”; the “loss of the cartilage matrix” value is on record as “rescuing the loss of cartilage matrix; also recorded: concentration-dependently rescued”. Further, in assay [2], the score of synovitis entry is recorded as “significantly decreased” and the “inflammatory response” value was “alleviating synovitis; also recorded: alleviated”. Further, in assay [3], the “thickness” value is listed as “decreased”; the “inflammation response” value is “alleviated”.

Consider `O=C(O)CCN1C(=O)/C(=C\c2ccc(-c3ccc(Cl)cc3)o2)SC1=S` [AVIX-7, 3-{5-[5-(4-chlorophenyl)-furan-2-ylmethylene]-4-oxo-2-thioxo-thiazolidin-3-yl}-propionic acid], for which, in assay [1], the “modified Mankin score” value is listed as “lower than that of the vehicle group”; the “loss of the cartilage matrix” value is “rescuing the loss of cartilage matrix; also recorded: concentration-dependently rescued”. Besides, in assay [2], the score of synovitis result is listed as “significantly decreased” and the “inflammatory response” value is given as “alleviating synovitis; also recorded: alleviated”. Moreover, in assay [3], the “thickness” value is “decreased”; the “inflammation response” value is “alleviated”.
